In patent publication US10076535B2, “Use of CPG oligonucleotides co-formulated with an antibiotic to accelerate wound healing” (THE UNITED STATES OF AMERICA, as represented by the …, priority 2012, dated 2018):
Entries after “also recorded” stand apart in the source; their conditions may differ.

Tests used:
[1] = test system: CCL2 mRNA; assay: Quantitative RT-PCR of mRNA at the wound site; type: in vivo, mice; details: added to antibiotic ointment; day 3; p<0.05
Procedure: (§1) Tissue from the biopsy site was excised, homogenized in Trizol, and extracted with chloroform. […] 1 μg of total RNA was reverse-transcribed using the QUANTITECT™ Reverse Transcription. Kit (QIAGEN®). Purified cDNA was used as the template for quantitative RT-PCR conducted using pre-designed primer/probe sets for interleucin (IL)-1β, CCL2, IFNa, IFNβ, basic fibroblast growth factor (FGF), transforming growth factor (TGF)β, and glyceraldehyde 3-phosphate dehydrogenase (GAPDH) (Applied Biosystems, Foster City, Calif.). Gene expression levels were analyzed using the STEPONEPLUS™ RT-PCR system (APPLIED BIOSYSTEMS®). All reagents and probes used in this system were purchased from APPLIED BIOSYSTEMS®.

[2] = test system: IFNβ; assay: Quantitative RT-PCR of mRNA at the wound site; type: in vivo, mice; details: day 3 after biopsy
Procedure: as §1

[3] = test system: IFNa; assay: Quantitative RT-PCR of mRNA at the wound site; type: in vivo, mice; details: day 3 after biopsy
Procedure: as §1

[4] = test system: BALB/c mice; assay: Murine in vivo wound repair model (6 mm full-thickness excisional punch biopsy); details: for effect on delay in wound healing caused by antibiotic: TLR ligand incorporated into / co-administered with antibiotic ointment; for effect on wound healing: simply applied over a pre-existing layer of antibiotic ointment or petrolatum
Procedure: The wound repair model of Devalaraja et al (J Invest Dermatol 2000; 115: 234-44) was used. Skin on the back was shaved and treated antibiotic ointment or petrolatum. In some studies, mice were injected s.c. at the base of the tail with 50 ug/g of vancomycin and imipenrm/cilastatin (Fernandez et al., Antimicrob Agents Chemother 2010; 54: 116-25, 2010). Fourteen days later, the mice were anesthetized by intraperitoneal injection of ketamine (80 μg/g) plus xylazine (10 ug/g). The skin on the back was gently cleaned with PBS. A 6 mm full-thickness excisional punch biopsy (including the Pannilulus carnosus) was taken using an ACU-PUNCH® (Fort Lauderdale, Fla.) from the right and left upper paravertebral region of each animal. Individual biopsy sites were coated with 100 μl of antibiotic ointment±50 μg CpG ODN and/or 5 μg IMQ, and then covered with nonadhesive sterile gauze (Sato et al., Wound Repair Regen 2010; 18: 586-93). Mice were wrapped with a form-fitting bandage to further protect the biopsy sites. Wound contraction was recorded every other day by digital photography and changes calculated using NIH Image J software (available on the internet, version 1.37). Each treatment was tested and results averaged in a minimum of five independent animals/group.
A well-established murine model of wound healing was used to evaluate the effect of antibiotic treatment on the rate of wound repair (Devalaraja et al., J Invest Dermatol 2000; 115: 234-44). Identical full-thickness excisional biopsies were taken from skin sites treated with either antibiotic ointment or petrolatum (different treatments were administered to contralateral sides of each animal). Sequential photographs provided a permanent record of the speed of wound closure. Untreated biopsy sites and sites treated with petrolatum (ointment control), healed at nearly identical rates.

[5] = test system: TGFβ; assay: Quantitative RT-PCR of mRNA at the wound site; type: in vivo, mice; details: Bx sites on day 3
Procedure: (§2) FIG. 6 is a bar graph of the effect of antibiotic ointment on the levels of b-FGF and TGFβ mRNA. Mice were treated as described in FIG. 3. Total RNA was extracted from the Bx sites on day 3. Quantitative RT-PCR was performed to detect b-FGF and TGFβ. Results represent the mean±SE of at least 4 independent samples/treatment group. *p<0.05 vs untreated group.
as §1

[6] = test system: b-FGF; assay: Quantitative RT-PCR of mRNA at the wound site; type: in vivo, mice; details: Bx sites on day 3
Procedure: as §2, §1

[7] = test system: macaques; details: topical administration; cited from earlier work
[8] = test system: IL-1β mRNA; assay: Quantitative RT-PCR of mRNA at the wound site; type: in vivo, mice; details: added to antibiotic ointment; day 3; p<0.05
Procedure: as §1

[9] = test system: mice; details: topical administration; cited from earlier work

Molecule: CC(C)Cn1cnc2c(N)nc3ccccc3c21 [IMQ, 1-isobutyl-1H-imidazo[4,5-c]quinolin-4-amine, reference compound]
- effect on antibiotic-reduced CCL2 mRNA level [1]: to a lesser extent IMQ corrected these defects
- expression of IFNβ at the biopsy site [2]: reversed
- expression of IFNa at the biopsy site [3]: reversed
- effect on delay in wound healing caused by antibiotic [4]: completely corrected the delay in wound healing; also recorded: reversed
- effect on wound healing [4]: no effect on wound healing
- expression of mRNA encoding TGFβ [5]: up-regulated
- expression of b-FGF at the wound site [6]: increased

Molecule: CpG ODN: Phosphorothioate K-type CpG ODN 1555, sequence GCTAGACGTTAGCGT, SEQ ID NO: 30 (DNA, all phosphorothioate, methylation of C not given here)
- wound closure [7]: significantly accelerated wound closure
- effect on antibiotic-reduced CCL2 mRNA level [1]: corrected these defects
- expression of IFNβ at the biopsy site [2]: reversed
- effect on antibiotic-reduced IL-1β mRNA level [8]: corrected these defects
- expression of IFNa at the biopsy site [3]: reversed
- effect on delay in wound healing caused by antibiotic [4]: completely corrected the delay in wound healing; also recorded: reversed
- effect on wound healing [4]: no effect on wound healing
- expression of mRNA encoding TGFβ [5]: up-regulated
- expression of b-FGF at the wound site [6]: increased
- wound closure [9]: significantly accelerated wound closure
